Results as given in patent publication US7659298B2, “Pyrazole derivatives and use thereof as orexin receptor antagonists” (sanofi-aventis, priority 2003, dated 2010).
Where no end group is shown, it is not given here.

Experiments:
[1] = target: T1, human recombinant orexin-2 (hr-OX-2) receptor (Homo sapiens, UniProt O43614); assay: hr-125I-orexin-A radioligand competition binding, orexin-2 receptor; details: read-out: Orex-2 IC50
T1 construct: expressed in transfected cells; host or cells: CHO cells (CHO-hr-OX-2), purified plasma membrane fraction
T1 sequence (O43614 1-444): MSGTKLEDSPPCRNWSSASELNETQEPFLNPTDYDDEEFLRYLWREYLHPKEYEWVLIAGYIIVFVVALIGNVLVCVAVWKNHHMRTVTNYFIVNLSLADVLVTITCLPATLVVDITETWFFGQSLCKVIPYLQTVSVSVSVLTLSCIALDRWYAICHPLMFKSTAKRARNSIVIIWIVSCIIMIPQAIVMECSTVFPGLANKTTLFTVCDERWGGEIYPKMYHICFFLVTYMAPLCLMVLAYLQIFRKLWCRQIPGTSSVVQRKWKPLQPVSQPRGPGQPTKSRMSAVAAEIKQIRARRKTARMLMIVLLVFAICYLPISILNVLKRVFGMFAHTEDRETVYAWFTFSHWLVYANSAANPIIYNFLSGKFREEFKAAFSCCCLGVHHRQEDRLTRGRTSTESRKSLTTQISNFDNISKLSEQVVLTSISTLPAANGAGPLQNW
Description: (§1) In vitro radioligand binding assays were used for determination of the affinities of the compounds for both the orexin-1 and orexin-2 receptors.
(§2) In the frame of hr-^125I-orexin-A radioligand competition (displacement) experiments a fixed concentration of hr-^125I-orexin-A is incubated with increasing concentrations of unlabeled test compound in the presence of highly purified plasmamembranes bearing either the human recombinant orexin-1 (hr-OX-1) or the human recombinant orexin-2 (hr-OX-2) receptors. Specific binding of hr-^125I-orexin-A to plasmamembranes is measured at each concentrations of the unlabeled compound and thus a competition curve is generated. The concentration of unlabeled compound displacing 50% of specific binding (IC50) is calculated. In case of competitive interaction the binding affinity constant of the unlabeled compound (KI) is calculated according to the Cheng-Prusoff equation ([…]. Affinity of unlabeled compound for the receptor is equal to 1/KI.
(§3) Culturing the Chinese hamster ovarian cells expressing human recombinant orexin-1 or orexin-2 receptor proteins (CHO-hr-OX-1 or CHO-hr-OX-2 cells) was carried out in cell culture medium (MEM medium, supplemented with 40 mg/l prolin, 20 mg/l gentamycin, 300 mg/l geneticin, 10% dialysed fetal calf serum).
(§4) Adherent cells were plated into Greiner flasks (175 cm^2). 4-6 days later culture medium was removed and cells were scarped in calcium- and magnesium-free phosphate buffered saline (PBS, 20 ml/flask). The cell suspension was centrifuged at 1,000 g for 5 minutes (4° C.). The resulting pellet was resuspended and homogenized with a teflon pestle (4° C.), then layered onto a discontinous sucrose gradient and centrifuged at 105,000 g. […]
(§5) Serial dilution series were prepared from stock solutions (100% DMSO) with binding assay buffer in such a way that each samples contained a final concentration of 1% of DMSO in the receptor binding reaction mixture. […] The radioactivity remained on the filter was counted in a gamma counter (Wallac Automatic Gamma Counter 1470 Wizard).

[2] = target: T2, human recombinant orexin-1 (hr-OX-1) receptor (Homo sapiens, UniProt O43613); assay: hr-125I-orexin-A radioligand competition binding, orexin-1 receptor; details: read-out: Orex-1 IC50
T2 construct: expressed in transfected cells; host or cells: CHO cells (CHO-hr-OX-1), purified plasma membrane fraction
T2 sequence (O43613 1-425): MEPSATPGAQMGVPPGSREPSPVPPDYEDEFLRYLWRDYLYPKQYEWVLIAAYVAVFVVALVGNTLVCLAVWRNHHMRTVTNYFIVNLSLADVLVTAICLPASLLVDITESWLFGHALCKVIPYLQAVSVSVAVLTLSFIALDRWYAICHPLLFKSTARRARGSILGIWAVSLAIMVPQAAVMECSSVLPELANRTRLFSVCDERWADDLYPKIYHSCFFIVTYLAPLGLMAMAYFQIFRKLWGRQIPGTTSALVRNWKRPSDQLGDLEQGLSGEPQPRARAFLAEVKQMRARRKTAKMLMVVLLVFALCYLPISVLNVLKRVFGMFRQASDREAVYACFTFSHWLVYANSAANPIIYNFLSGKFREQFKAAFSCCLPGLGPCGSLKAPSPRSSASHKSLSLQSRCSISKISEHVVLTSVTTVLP
Description: as §1, §2, §3, §4, §5

orexin-1 receptors = details: cited from earlier work

Compound | IC50 [1] | IC50 [2] | melting point | fold more effective on the orexin-1 receptors compared to orexin B (orexin-1 receptors)
Cn1nc(-c2ccccc2)c(CSc2ccccc2C(=O)Nc2ccc3ccccc3c2)c1Cl | 156 nM | 33 nM |  | 
Cn1nc(-c2ccncc2)c(COc2ccccc2C(=O)Nc2cnc3ccccc3c2)c1Cl [2-(5-Chloro-1-methyl-3-pyridin-4-yl-1H-pyrazol-4-ylmethoxy)-N-quinolin-3-ylbenzamide] | 1100 nM | 51 nM |  | 
Cn1nc(-c2cccnc2)c(CCc2ccccc2C(=O)Nc2cnc3ccccc3c2)c1Cl [2-[2-(5-Chloro-1-methyl-3-pyridin-3-yl-1H-pyrazol-4-yl)ethyl]-N-quinolin-3-ylbenzamide] | 680 nM | 57 nM |  | 
Cn1nc(-c2ccccc2)c(COc2ccccc2C(=O)Nc2cnc3ccccc3c2)c1Cl [Example 65, 2-(3-Phenyl-5-chloro-1-methyl-1H-pyrazol-4-ylmethoxy)-N-quinolin-3-ylbenzamide] |  |  | 170 °C | 
orexin A: "Orexin A consists of 33 aminoacid residues with two intramolecular disulphide bridges" (QPLPDCCRQKTCSCRLYELLHGAGNHAAGILTL; disulfide (positions not given here); ends not checked; UniProt O43612 34-66, looked up) |  |  |  | 10-50 fold
